This passage reports IC50 results from ChEMBL document CHEMBL1129590, “Tyrphostins. 6. Dimeric benzylidenemalononitrile tyrophostins: potent inhibitors of EGF receptor tyrosine kinase in vitro” (J Med Chem, 1996).

Assay [1] concerns the target T1, Epidermal growth factor receptor (Homo sapiens, UniProt P00533). Briefly: Inhibition of epidermal growth factor receptor (EGFR) phosphorylation of the exogenous substrate poly(Glu6, Ala3,Tyr) (polyGAT).
The target in assay [2] is T1, Epidermal growth factor receptor. Briefly: Inhibitory activity of compound against Epidermal growth factor receptor autophosphorylation.

T1 sequence (P00533 whole entry): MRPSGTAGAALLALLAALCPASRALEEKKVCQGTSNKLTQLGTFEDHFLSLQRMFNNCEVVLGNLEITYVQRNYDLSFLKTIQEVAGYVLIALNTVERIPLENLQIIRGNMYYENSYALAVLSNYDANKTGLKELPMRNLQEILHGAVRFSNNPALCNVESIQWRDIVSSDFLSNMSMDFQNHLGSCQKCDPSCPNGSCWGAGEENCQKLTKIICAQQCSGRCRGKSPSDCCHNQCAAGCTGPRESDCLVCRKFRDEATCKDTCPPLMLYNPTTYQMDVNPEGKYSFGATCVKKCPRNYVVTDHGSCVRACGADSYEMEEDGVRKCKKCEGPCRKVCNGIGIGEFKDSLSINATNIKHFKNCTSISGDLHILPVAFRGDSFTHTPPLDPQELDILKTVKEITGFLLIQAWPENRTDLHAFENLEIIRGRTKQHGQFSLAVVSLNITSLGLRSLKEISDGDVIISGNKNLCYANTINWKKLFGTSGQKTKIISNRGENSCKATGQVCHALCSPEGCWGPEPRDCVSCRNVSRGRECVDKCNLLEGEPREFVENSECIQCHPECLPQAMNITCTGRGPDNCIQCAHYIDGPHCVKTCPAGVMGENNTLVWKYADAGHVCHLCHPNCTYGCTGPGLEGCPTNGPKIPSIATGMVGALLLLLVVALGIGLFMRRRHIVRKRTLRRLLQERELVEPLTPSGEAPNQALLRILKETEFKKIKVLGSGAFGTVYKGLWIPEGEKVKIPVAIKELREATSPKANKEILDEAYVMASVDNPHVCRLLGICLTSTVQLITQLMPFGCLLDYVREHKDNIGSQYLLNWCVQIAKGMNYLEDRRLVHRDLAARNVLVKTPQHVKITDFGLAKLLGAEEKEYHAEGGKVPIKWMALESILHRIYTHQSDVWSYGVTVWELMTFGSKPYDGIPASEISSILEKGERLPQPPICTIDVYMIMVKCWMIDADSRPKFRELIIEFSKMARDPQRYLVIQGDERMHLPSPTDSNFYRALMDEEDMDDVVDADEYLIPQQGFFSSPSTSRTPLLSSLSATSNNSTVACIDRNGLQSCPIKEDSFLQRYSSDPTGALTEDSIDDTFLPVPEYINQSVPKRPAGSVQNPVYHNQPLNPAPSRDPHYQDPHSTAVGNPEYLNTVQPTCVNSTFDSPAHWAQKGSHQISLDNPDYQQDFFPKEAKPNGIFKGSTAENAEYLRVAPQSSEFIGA

As for `N#C/C(=C\c1ccc2[nH]ccc2c1)C(=O)NCCCNC(=O)/C(C#N)=C/c1ccc2[nH]ccc2c1`, the IC50 in assay [1] and in assay [2] was > 100 µM each time.
As for `N#C/C(=C\c1ccc(O)c(O)c1)C(=O)NCc1cccc(CNC(=O)/C(C#N)=C/c2ccc(O)c(O)c2)c1`, the IC50 (as a rule, the concentration at which inhibition is half-maximal) in assay [1] was found to be 1.6 µM; in assay [2], 10.3 µM.
`N#C/C(=C\c1ccc(O)c(O)c1)C(=O)NCCCN1CCN(CCCNC(=O)/C(C#N)=C/c2ccc(O)c(O)c2)CC1`: the IC50 in assay [2] was > 167 µM.
In the case of `N#C/C(=C\c1ccc(O)c(O)c1)C(=O)NCCCCNC(=O)/C(C#N)=C/c1ccc(O)c(O)c1`, the IC50 in assay [1] is 0.6 µM; in assay [2], 4.3 µM.
`N#C/C(=C\c1cc(O)c(O)c([N+](=O)[O-])c1)C(=O)NCCCNC(=O)/C(C#N)=C/c1cc(O)c(O)c([N+](=O)[O-])c1`: the IC50 in assay [2] is > 100 µM.
For the compound `N#C/C(=C\c1ccc(O)c(O)c1)C(=O)NCCCCCCNC(=O)/C(C#N)=C/c1ccc(O)c(O)c1`, the IC50 turned out to be 0.7 µM in assay [1] and 11 µM in assay [2].
Take `N#C/C(=C\c1cc(O)c(O)c(Br)c1)C(=O)NCCCNC(=O)/C(C#N)=C/c1cc(O)c(O)c(Br)c1`: the values for the IC50 in assay [1] and in assay [2] were 0.34 µM and 3.9 µM, respectively.
For `N#C/C(=C\c1ccc(O)c(O)c1)C(=O)NC1CCCC[C@@H]1NC(=O)/C(C#N)=C/c1ccc(O)c(O)c1` (some centres not stated), in that order: 2.1 µM and 13.5 µM.
For `N#C/C(=C\c1cc(O)c(O)c(Br)c1)S(=O)(=O)/C(C#N)=C/c1cc(O)c(O)c(Br)c1`, in that order: 0.85 µM and 1.4 µM.
Regarding `N#C/C(=C\c1ccc(O)c(O)c1)C(=O)NCCCCCNC(=O)/C(C#N)=C/c1ccc(O)c(O)c1`, the figures for the half-inhibitory concentration (IC50) in assay [1] and in assay [2] were 0.7 µM and 20 µM, respectively.
Turning to `N#C/C(=C\c1ccc(O)c(O)c1)C(=O)NCCNC(=O)/C(C#N)=C/c1ccc(O)c(O)c1`, the IC50 amounted to 0.5 µM in assay [1] and 113 µM in assay [2].
Turning to `N#C/C(=C\c1ccc(O)c(O)c1)C(=O)NCN1CCN(C(=O)/C(C#N)=C/c2ccc(O)c(O)c2)CC1`, the IC50 in assay [2] was > 83 µM.
Consider `COc1cc(/C=C(\C#N)C(=O)NCCCCNC(=O)/C(C#N)=C/c2cc(OC)c(O)c([N+](=O)[O-])c2)cc([N+](=O)[O-])c1O`, for which the IC50 in assay [1] came to 112 µM; in assay [2], 19 µM.
As to `N#C/C(=C\c1ccc(O)c(O)c1)C(=O)NC1CCC(CC2CCC(NC(=O)/C(C#N)=C/c3ccc(O)c(O)c3)CC2)CC1` (configuration not stated), the IC50 in assay [2] was > 83 µM.
As to `N#C/C(=C\c1ccc(O)c(O)c1)C(=O)NCCN1CCN(C(=O)/C(C#N)=C/c2ccc(O)c(O)c2)CC1`, the IC50 worked out at 2.2 µM in assay [1] and 10 µM in assay [2].
`N#C/C(=C\c1ccc(O)c(O)c1)S(=O)(=O)/C(C#N)=C/c1ccc(O)c(O)c1`: the IC50 in assay [1] worked out at 0.38 µM; in assay [2] it was 12 µM.
Turning to `N#C/C(=C\c1ccc(O)c(O)c1)C(=O)NCC1CCCC(CNC(=O)/C(C#N)=C/c2ccc(O)c(O)c2)C1` (configuration not stated), the IC50 in assay [1] was 1.8 µM; in assay [2] it was > 100 µM.
Compound `COc1cc(/C=C(\C#N)C(=O)NCCCCNC(=O)/C(C#N)=C/c2cc(Br)c(O)c(OC)c2)cc(Br)c1O` registered an IC50 in assay [2] of 102 µM.
On to `N#C/C(=C\c1ccc(O)c(O)c1)C(=O)N1CCN(C(=O)/C(C#N)=C/c2ccc(O)c(O)c2)CC1`, for which the IC50 in assay [1] stood at 4 µM; in assay [2] it was 25 µM.
Turning to `N#C/C(=C\c1cc(O)c(O)c(O)c1)C(=O)NCCCCNC(=O)/C(C#N)=C/c1cc(O)c(O)c(O)c1`, the IC50 is 0.6 µM in assay [1] and 21 µM in assay [2].
Take `N#C/C(=C\c1ccc(O)c(O)c1)C(=O)NCCCCCCCCCCNC(=O)/C(C#N)=C/c1ccc(O)c(O)c1`: the results for the IC50 in assay [1] and in assay [2] were 1.3 µM and > 100 µM, respectively.
